Reference: patent publication US20230172959A1, “USE OF NMN FOR THE PREVENTION AND/OR TREATMENT OF A BACK PAIN AND CORRESPONDING COMPOSITIONS” (NUVAMID SA, priority 2020, published 2023)
Values joined by “and” are separate entries in the source; they are usually repeats but may differ in a detail not shown here. Equal entries are not always repeated.

Legend:
Assay type in all cases: in vivo, human
chronic lumbalgia [1] = assay: WOMAC questionnaire, 10-day satisfaction study in 12 volunteers
Protocol: More precisely, the WOMAC score is calculated on the basis of the responses to the questions below: The total score corresponds to the average of the 24 items. The same is true for the score for each area of assessment. A satisfaction study was carried out on a group of 12 volunteers, aged 42±8 years, consisting of seven female and five male subjects. The main objective of this study was to evaluate the level of satisfaction of subjects with regard to the evolution of their lumbalgia (low back pain) during the morning and/or evening application of a composition according to the invention containing 5% by weight of NMN. A composition in the form of an oil-in-water emulsion comprising 5% NMN was formulated as follows, the ingredients being designated by their INCI (International Nomenclature of Cosmetic Ingredients) name: Aqua, Paraffinum liquidum, Cetyl alcohol, Glyceryl stearate, Benzyl PCA, Ceteareth-20, Ceteareth-12, Cetyl Palmitate, Cocoglycerides, Cetearyl alcohol, Sodium Hydroxide, NMN. The composition was prepared according to any method well known to the person skilled in the art. The study took place over 10 days. At baseline, ie upon inclusion (DO), the selected subjects provide their demographic characteristics (age, weight, height), indicate the period of persistence and intensity of the pain on a Visual Analogue Scale, and complete the WOMAC and Lequesne questionnaires. These different scales were used in order to assess by different means the effect of NMN on lumbalgia. On day 10, the volunteers complete the WOMAC questionnaire, the Lequesne questionnaire, the Visual Analogue Scale (VAS) of pain, indicating the perceived improvement in lumbalgia pain relief as measured by the PGI-I index (abbreviation for “Patient Global Improvement Impression”), satisfaction with regard to evolution of the lumbalgia on a Likert scale as well as the ease of application and penetration of the composition, assessment of the texture and odour of the composition, likelihood of re-use thereof in the event of recurrence of a similar pain, and recommendation of use to third parties presenting with pain of similar nature. The PGI-I index is an index that serves as means for evaluating the response to a treatment. The Likert scale is a psychometric tool used for measuring an attitude in individuals, which consists of one or more statements for which the individual responding expresses their degree of agreement or disagreement.

[2] = Adverse side effects and allergies reported by the volunteers; settings: 10 days topical use of 5% NMN emulsion, 12 volunteers
Protocol: A satisfaction study was carried out on a group of 12 volunteers, aged 42±8 years, consisting of seven female and five male subjects. The main objective of this study was to evaluate the level of satisfaction of subjects with regard to the evolution of their lumbalgia (low back pain) during the morning and/or evening application of a composition according to the invention containing 5% by weight of NMN.
A composition in the form of an oil-in-water emulsion comprising 5% NMN was formulated as follows, the ingredients being designated by their INCI (International Nomenclature of Cosmetic Ingredients) name: Aqua, Paraffinum liquidum, Cetyl alcohol, Glyceryl stearate, Benzyl PCA, Ceteareth-20, Ceteareth-12, Cetyl Palmitate, Cocoglycerides, Cetearyl alcohol, Sodium Hydroxide, NMN. The composition was prepared according to any method well known to the person skilled in the art.
Over the subsequent 9 day period, each evening the subjects fill in the Visual Analogue Scale of pain, ensuring any discomfort or problems arising or the taking of analgesics are reported therein.

chronic lumbalgia [3] = assay: Visual Analogue Scale (VAS) of lumbalgia pain, 10-day satisfaction study in 12 volunteers; settings: for VAS lumbalgia pain, median / VAS lumbalgia pain, mean: 5% NMN oil-in-water emulsion topical twice a day, scale 0-100; for VAS lumbalgia pain, median: baseline D 0 72.5; for VAS lumbalgia pain, mean: baseline D 0 73.4
Protocol: A satisfaction study was carried out on a group of 12 volunteers, aged 42±8 years, consisting of seven female and five male subjects. The main objective of this study was to evaluate the level of satisfaction of subjects with regard to the evolution of their lumbalgia (low back pain) during the morning and/or evening application of a composition according to the invention containing 5% by weight of NMN. The duration of the existence of pains in the lumbar spine region was on average 4±3 years (ie […]) while the current pains of the subjects dated back to 2±3 years pre-baseline (before inclusion). These pains occurred mostly spontaneously (58.3%). More precisely, seven participants presented with a lumbalgia of spontaneous origin, one participant presented with a lumbalgia resulting from a physical or sporting activity, two participants attributed their lumbalgia to the practice of gardening, and two other participants attributed their lumbalgia to another of these causes. The participants therefore all had chronic lumbalgia. A composition in the form of an oil-in-water emulsion comprising 5% NMN was formulated as follows, the ingredients being designated by their INCI (International Nomenclature of Cosmetic Ingredients) name: Aqua, Paraffinum liquidum, Cetyl alcohol, Glyceryl stearate, Benzyl PCA, Ceteareth-20, Ceteareth-12, Cetyl Palmitate, Cocoglycerides, Cetearyl alcohol, Sodium Hydroxide, NMN. The composition was prepared according to any method well known to the person skilled in the art. The study took place over 10 days. At baseline, ie upon inclusion (DO), the selected subjects provide their demographic characteristics (age, weight, height), indicate the period of persistence and intensity of the pain on a Visual Analogue Scale, and complete the WOMAC and Lequesne questionnaires. These different scales were used in order to assess by different means the effect of NMN on lumbalgia. Over the subsequent 9 day period, each evening the subjects fill in the Visual Analogue Scale of pain, ensuring any discomfort or problems arising or the taking of analgesics are reported therein. On day 10, the volunteers complete the WOMAC questionnaire, the Lequesne questionnaire, the Visual Analogue Scale (VAS) of pain, indicating the perceived improvement in lumbalgia pain relief as measured by the PGI-I index (abbreviation for “Patient Global Improvement Impression”), satisfaction with regard to evolution of the lumbalgia on a Likert scale as well as the ease of application and penetration of the composition, assessment of the texture and odour of the composition, likelihood of re-use thereof in the event of recurrence of a similar pain, and recommendation of use to third parties presenting with pain of similar nature. The PGI-I index is an index that serves as means for evaluating the response to a treatment. The Likert scale is a psychometric tool used for measuring an attitude in individuals, which consists of one or more statements for which the individual responding expresses their degree of agreement or disagreement.

[4] = after 10 days vs baseline, p<0.001

## NC(=O)c1ccc[n+]([C@@H]2O[C@H](COP(=O)([O-])O)[C@@H](O)[C@H]2O)c1 (stereo in doubt) [NMN, nicotinamide mononucleotide]
Chronic lumbalgia [1]; after 10 days of application, baseline 57.1±15.5, 5% NMN emulsion topical
  WOMAC "function" criterion: 30.8±21.8
Chronic lumbalgia [1]; after 10 days of application, baseline 58.3±14.8, 5% NMN emulsion topical
  total WOMAC score: 30.9±21.7
Chronic lumbalgia [1]; after 10 days of application, baseline 59.9±13.1, 5% NMN emulsion topical
  WOMAC "pain" criterion: 31.0±21.2
Chronic lumbalgia [1]; after 10 days of application, baseline 64.2±21.0, 5% NMN emulsion topical
  WOMAC "stiffness" criterion: 31.6±25.0
Chronic lumbalgia [1]; [4]
  decrease of total WOMAC score: 48.6±33.7%
  reduction of WOMAC "pain" criterion: 50.1±31.3%
  reduction of WOMAC "stiffness" criterion: 52.5±32.9%
Chronic lumbalgia [1]; after 10 days vs baseline, p<0.01
  reduction of WOMAC "function" criterion: 47.5±35.6%
[2]
  adverse side effects: neither any adverse side effects
  allergies: nor developed any allergies
Chronic lumbalgia [3]; 10 days of application vs baseline, 5% NMN emulsion topical, p<0.0001
  reduction of lumbalgia pain measured by the VAS: 58.7±29.2% and 58.7%
Chronic lumbalgia [3]; D 1
  VAS lumbalgia pain, median: 60.5
  VAS lumbalgia pain, mean: 61.1
Chronic lumbalgia [3]; D 2
  VAS lumbalgia pain, median: 59.0
  VAS lumbalgia pain, mean: 56.8
Chronic lumbalgia [3]; D 3
  VAS lumbalgia pain, median: 57.5
  VAS lumbalgia pain, mean: 52.3
Chronic lumbalgia [3]; D 4
  VAS lumbalgia pain, median: 51.0
  VAS lumbalgia pain, mean: 49.4
Chronic lumbalgia [3]; D 5
  VAS lumbalgia pain, median: 45.5
  VAS lumbalgia pain, mean: 45.7
Chronic lumbalgia [3]; D 6
  VAS lumbalgia pain, median: 42.5
  VAS lumbalgia pain, mean: 42.4
Chronic lumbalgia [3]; D 7
  VAS lumbalgia pain, median: 48.0
  VAS lumbalgia pain, mean: 45.2
Chronic lumbalgia [3]; D 8
  VAS lumbalgia pain, median: 38.0
  VAS lumbalgia pain, mean: 35.8
Chronic lumbalgia [3]; D 9
  VAS lumbalgia pain, median: 26.0
  VAS lumbalgia pain, mean: 28.3
Chronic lumbalgia [3]; D 10
  VAS lumbalgia pain, median: 30.0
  VAS lumbalgia pain, mean: 30.8±22.6 and 30.8
Chronic lumbalgia [3]; VAS, 5% NMN emulsion topical twice a day
  mean time period to obtain an initial 50% reduction in pain relative to baseline: 5.0 ± 2.9 days
